Experimental data taken from the supplement of paper PMC10307832.

Tests used:
Experiment in all cases: relative viability (nuclei count vs DMSO), 5 days (fraction); higher = more cells survive
[1] = compound: Cn1cc(-c2cnn3c(N)c(Br)c([C@@H]4CCCNC4)nc23)cn1 + CC(=O)Nc1cccc(-n2c(=O)n(C3CC3)c(=O)c3c(Nc4ccc(I)cc4F)n(C)c(=O)c(C)c32)c1 [Trametinib] (partner 0.02 µM)
In short: (§1)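 Lung cancer cell lines, seeded in 1536-well plates, were treated the following day by pin tool with a single drug or with five library-drug doses (not always all listed) in √10 steps on top of a fixed anchor-drug dose. Cells were fixed and nuclei stained in one step after 5 days, and nuclei were counted. Relative viability is the nuclei count for treated wells divided by that for vehicle wells, reported as medians of duplicate plates.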

[2] = compound: Cn1cc(-c2cnn3c(N)c(Br)c([C@@H]4CCCNC4)nc23)cn1 + CS(=O)(=O)CCNCc1ccc(-c2ccc3ncnc(Nc4ccc(OCc5cccc(F)c5)c(Cl)c4)c3c2)o1 [Lapatinib] (partner 2 µM)
In short: as §1

[3] = compound: Cn1cc(-c2cnn3c(N)c(Br)c([C@@H]4CCCNC4)nc23)cn1 + N=C(N)NC(=N)NCCc1ccccc1 [Phenformin] (partner 250 µM)
In short: as §1

[4] = compound: Cn1cc(-c2cnn3c(N)c(Br)c([C@@H]4CCCNC4)nc23)cn1 + O=C(c1cc(Cc2n[nH]c(=O)c3ccccc23)ccc1F)N1CCN(C(=O)C2CC2)CC1 [Olaparib] (partner 8 µM)
In short: as §1

Cell Line | relative viability ([1]; first compound 0.05 µM) | relative viability ([1]; first compound 0.1581 µM) | relative viability ([1]; first compound 0.5 µM) | relative viability ([1]; first compound 1.581 µM) | relative viability ([1]; first compound 5 µM) | relative viability ([2]; first compound 0.05 µM) | relative viability ([2]; first compound 0.1581 µM) | relative viability ([2]; first compound 0.5 µM) | relative viability ([2]; first compound 1.581 µM) | relative viability ([2]; first compound 5 µM) | relative viability ([3]; first compound 0.05 µM) | relative viability ([3]; first compound 0.1581 µM) | relative viability ([3]; first compound 0.5 µM) | relative viability ([3]; first compound 1.581 µM) | relative viability ([3]; first compound 5 µM) | relative viability ([4]; first compound 0.05 µM) | relative viability ([4]; first compound 0.1581 µM) | relative viability ([4]; first compound 0.5 µM) | relative viability ([4]; first compound 1.581 µM) | relative viability ([4]; first compound 5 µM)
COR-L 105 | 0.424 | 0.436 | 0.414 | 0.417 | 0.422 | 0.323 | 0.386 | 0.393 | 0.354 | 0.311 | 0.504 | 0.508 | 0.452 | 0.379 | 0.301 | 0.467 | 0.512 | 0.752 | 0.64 | 0.519
LK-2 | 0.974 | 1.05 | 0.719 | 0.626 | 0.625 | 1.01 | 0.878 | 0.823 | 0.757 | 0.605 | 0.374 | 0.471 | 0.258 | – | 0.286 | 0.664 | 0.648 | 0.771 | 0.568 | 0.373
NCI-H727 | 0.394 | 0.412 | 0.366 | 0.404 | 0.348 | 0.867 | 1.05 | 0.813 | 0.88 | 0.426 | 0.505 | 0.501 | 0.663 | 0.51 | 0.238 | 0.754 | 0.873 | 0.68 | 0.646 | 0.559
RERF-LC-KJ | 0.88 | 0.839 | 0.835 | 0.8 | 0.657 | 0.917 | 0.966 | 0.862 | 0.828 | 0.771 | 0.41 | 0.46 | 0.41 | 0.408 | 0.412 | 1.05 | 0.996 | 0.869 | 0.762 | 0.662
NCI-H2023 | 0.606 | 0.336 | 0.416 | 0.227 | 0.185 | 0.978 | 0.739 | 0.416 | 0.258 | 0.127 | 0.426 | 0.368 | 0.245 | 0.203 | 0.129 | 0.473 | 0.336 | 0.253 | 0.253 | 0.139
NCI-H322M | 0.553 | 0.495 | 0.519 | 0.491 | 0.391 | 0.488 | 0.585 | 0.621 | 0.493 | 0.512 | 0.681 | 0.595 | 0.717 | 0.474 | 0.254 | 0.323 | 0.704 | 0.775 | 0.635 | 0.418
NCI-H1666 | 0.92 | 0.867 | 0.892 | 0.959 | 0.71 | 0.576 | 0.648 | 0.555 | 0.559 | 0.594 | 0.536 | 0.552 | 0.573 | 0.549 | 0.593 | 0.777 | 0.797 | 0.7 | 0.716 | 0.741
NCI-H1648 | 0.443 | 0.478 | 0.421 | 0.435 | 0.515 | – | – | – | – | – | – | – | – | – | – | 0.64 | 0.829 | 1.1 | 1.08 | 0.583
NCI-H2087 | 0.151 | 0.203 | 0.178 | 0.164 | 0.189 | 1.29 | 1.17 | 0.996 | 1.21 | 0.985 | 0.47 | 0.479 | 0.483 | 0.485 | 0.507 | 0.766 | 0.735 | 0.623 | 0.624 | 0.676
